According to patent US20240245711A1, “A 19-NOR C3,3-DISUBSTITUTED C21-N-PYRAZOLYL STEROID FOR THE TREATMENT OF MAJOR DEPRESSIVE DISORDER” (Sage Therapeutics, Inc., priority 2021, published 2024):
Values joined by “and” are separate entries in the source; they are usually repeats but may differ in a detail not shown here. Equal values may be shown once.

System: adult subjects with Major Depressive Disorder
Assay: Phase 3 open-label 1-year study: HAM-D total score, response and remission
Format: in vivo, human
Source text: Secondary Objective: To assess the need for re-treatment with Compound (1) following initial treatment in adults with MDD currently experiencing an MDE over a 1-year period, and to assess the response of initial treatment and re-treatment(s) with Compound (1) following an initial 2-week treatment period in adults with MDD currently experiencing an MDE over a 1-year period.
Secondary Endpoints: The need for re-treatment with Compound (1) as assessed by: time to first re-treatment (Kaplan-Meier curves), number of subjects achieving the requirements for re-treatment, number of re-treatment cycles for each subject, the response of initial treatment and/or re-treatment as assessed by: change from baseline in the 17-item Hamilton Rating Scale for Depression (HAM-D) total score at the end of each 14-day treatment (initial and/or re-treatment) period, HAM-D response at the end of each 14-day treatment (initial and/or re-treatment) period, defined as a ≥50% reduction in HAM-D score from baseline, HAM-D remission at the end of each 14-day treatment (initial and/or re-treatment) period, defined as HAM-D total score≤7, Clinical Global Impression-Improvement (CGI-I) response, defined as “much improved” or “very much improved”, at the end of each 14-day treatment (initial and/or re-treatment) period, change from baseline in Clinical Global Impression-Severity (CGI-S) score at the end of each 14-day treatment (initial and/or re-treatment) period.
Study Population: Subjects were 18-75 years old, diagnosed with major depressive disorder (MDD) with a MADRS total score of ≥28 and a HAM-D total score of ≥20 at Screening and Day 1 (prior to dosing).
Treatment Groups: The 30 mg and 50 mg dose groups were separated by time of enrollment. The study is comprised of two cohorts: one with Compound (1) 30 mg as a starting dose (30 mg Cohort: n=725), an initial cohort with Compound (1) 50 mg as a starting dose (50 mg Cohort: n=199). A patient receiving Compound (1) 30 mg could be dose reduced to 20 mg and patients receiving Compound (1) 50 mg could be dose reduced to 40 mg (based on tolerability). In all cohorts, Compound (1) is self-administered by patients as an oral therapy once nightly with food for 14 days.
Eligible subjects were given Compound (1)—to be taken at home in the evening with meal.
The cohorts pertaining to the different doses that the subjects received were defined as following: • 50 mg cohort: This cohort includes subjects who have initiated treatment with 50 mg and received re-treatment with 50 mg only. • 30 mg cohort: This cohort includes subjects who have initiated treatment with 30 mg regardless of the dose they have received in re-treatments. • Low dose cohort: This cohort includes subjects who have initiated treatment with 30 mg and received re-treatment with 30 mg only. • Dose switch cohort: This cohort includes subjects who have received initial treatment with 30 mg and at least one subsequent re-treatment with 50 mg. • Study Period X: starts on the date of the first dose of Compound (1) in cycle X and goes up to one day prior to the first dose of the next cycle. In some embodiments, X is any number from 1 to 5. • Treatment Period X: starts on the date of the first dose of Compound (1) in cycle X and goes up to one day after the last dose in cycle X. In some embodiments, X is any number from 1 to 5. • Treatment Cycle X: starts on the date of the first dose of Compound (1) in cycle X and goes up to 14 days after the last dose in cycle X. The treatment cycles may be denoted as C1-C5. • Observation period X: starts the day after Treatment Cycle X ends and goes up to one day prior to the start of next treatment cycle. In some embodiments, X is any number from 1 to 5.
Analysis Sets: The safety set was defined as all subjects who were administered study drug. The period-specific safety set includes subjects in the safety set who were administered study drug in the corresponding treatment cycle. […]

[1] = baseline HAM-D score ≥24, Study Period 1, 50 mg Cohort (N = 127), Day 28
[2] = baseline HAM-D score ≥24, Study Period 1, 50 mg Cohort (N = 127), Day 70
[3] = baseline HAM-D score ≥24, Study Period 1, 50 mg Cohort (N = 127), Day 126
[4] = baseline HAM-D score ≥26, Study Period 1, 30 mg Cohort (N = 327), Day 8
[5] = baseline HAM-D score ≥26, Study Period 1, 30 mg Cohort (N = 327), Day 15
[6] = baseline HAM-D score ≥26, Study Period 1, 30 mg Cohort (N = 327), Day 28
[7] = baseline HAM-D score ≥26, Study Period 1, 30 mg Cohort (N = 327), Day 70
[8] = baseline HAM-D score ≥26, Study Period 1, 30 mg Cohort (N = 327), Day 126
[9] = baseline HAM-D score ≥26, Study Period 1, 50 mg Cohort (N = 85), Day 8
[10] = baseline HAM-D score ≥26, Study Period 1, 50 mg Cohort (N = 85), Day 15
[11] = baseline HAM-D score ≥26, Study Period 1, 50 mg Cohort (N = 85), Day 28
[12] = baseline HAM-D score ≥26, Study Period 1, 50 mg Cohort (N = 85), Day 70
[13] = baseline HAM-D score ≥26, Study Period 1, 50 mg Cohort (N = 85), Day 126

C[C@@]1(O)CC[C@H]2[C@H](CC[C@@H]3[C@@H]2CC[C@]2(C)[C@@H](C(=O)Cn4cc(C#N)cn4)CC[C@@H]32)C1 [Compound (1), 1-(2-((3R,5R,8R,9R,10S,13S,14S,17S)-3-hydroxy-3,13-dimethylhexadecahydro-1H-cyclopenta[a]phenanthren-17-yl)-2-oxoethyl)-1H-pyrazole-4-carbonitrile]
HAM-D Response [1]: 74/120 (61.7%)
HAM-D total score, Mean % CFB ± SD [1]: −58.0 ± 25.97%
HAM-D total score, Mean CFB ± SD [1]: −15.7 ± 7.17
HAM-D Remission [2]: 26/79 (32.9%)
HAM-D Response [2]: 43/79 (54.4%)
HAM-D total score, Mean % CFB ± SD [2]: −53.0 ± 28.53%
HAM-D total score, Mean CFB ± SD [2]: −14.4 ± 7.93
HAM-D Remission [3]: 13/17 (76.5%)
HAM-D Response [3]: 14/17 (82.4%)
HAM-D total score, Mean % CFB ± SD [3]: −74.8 ± 27.94%
HAM-D total score, Mean CFB ± SD [3]: −19.9 ± 8.10
HAM-D Response [4]: 138/319 (43.3%)
HAM-D total score, Mean % CFB ± SD [4]: −43.7 ± 25.84%
HAM-D total score, Mean CFB ± SD [4]: −12.6 ± 7.44
HAM-D Response [5]: 220 (71.4%) and 220/308 (71.4%)
HAM-D total score, Mean % CFB ± SD [5]: −60.6 ± 26.28%
HAM-D total score, Mean CFB ± SD [5]: −17.6 ± 7.77
HAM-D Response [6]: 184/305 (60.3%)
HAM-D total score, Mean % CFB ± SD [6]: −55.6 ± 28.46%
HAM-D total score, Mean CFB ± SD [6]: −16.2 ± 8.48
HAM-D Response [7]: 87/170 (51.2%)
HAM-D total score, Mean % CFB ± SD [7]: −49.8 ± 32.15%
HAM-D total score, Mean CFB ± SD [7]: −14.7 ± 9.65
HAM-D Response [8]: 60/82 (73.2%)
HAM-D total score, Mean % CFB ± SD [8]: −65.6 ± 28.15%
HAM-D total score, Mean CFB ± SD [8]: −19.1 ± 8.11
HAM-D Remission [9]: 13/82 (15.9%)
HAM-D Response [9]: 43/82 (52.4%)
HAM-D total score, Mean % CFB ± SD [9]: −49.6 ± 21.15%
HAM-D total score, Mean CFB ± SD [9]: −14.0 ± 6.05
HAM-D Remission [10]: 27 (33.8%) and 27/80 (33.8%)
HAM-D Response [10]: 64 (80.0%) and 64/80 (80.0%)
HAM-D total score, Mean % CFB ± SD [10]: −64.3 ± 20.17%
HAM-D total score, Mean CFB ± SD [10]: −18.2 ± 5.89
HAM-D Remission [11]: 26/80 (32.5%)
HAM-D Response [11]: 51/80 (63.8%)
HAM-D total score, Mean % CFB ± SD [11]: −58.5 ± 24.24%
HAM-D total score, Mean CFB ± SD [11]: −16.6 ± 7.05
HAM-D Remission [12]: 18/56 (32.1%)
HAM-D Response [12]: 30/56 (53.6%)
HAM-D total score, Mean % CFB ± SD [12]: −52.9 ± 28.48%
HAM-D total score, Mean CFB ± SD [12]: −15.1 ± 8.23
HAM-D Remission [13]: 8/10 (80%)
HAM-D Response [13]: 8/10 (80%)
HAM-D total score, Mean % CFB ± SD [13]: −74.2 ± 34.34%
HAM-D total score, Mean CFB ± SD [13]: −21.0 ± 10.12
HAM-D Remission (baseline HAM-D score ≥26, Study Period 1, Table 3: 30 mg Cohort (N = 327), Table 19 head: Low Dose Cohort (N = 327), Day 15): 113 (36.7%) and 113/308 (36.7%)
HAM-D Remission (baseline HAM-D score ≥26, Study Period 1, Table 19: Low Dose Cohort (N = 327), Day 8): 49/319 (15.4%)
HAM-D Remission (baseline HAM-D score ≥26, Study Period 1, Table 19: Low Dose Cohort (N = 327), Day 28): 94/305 (30.8%)
HAM-D Remission (baseline HAM-D score ≥26, Study Period 1, Table 19: Low Dose Cohort (N = 327), Day 70): 43/170 (25.3%)
HAM-D Remission (baseline HAM-D score ≥26, Study Period 1, Table 19: Low Dose Cohort (N = 327), Day 126): 37/82 (45.1%)
